Measurements from US10722520B2, “Heterocyclic compounds and their use in preventing or treating bacterial infections” (MUTABILIS, priority 2016, dated 2020).
Counter-ions that a name gives are not always drawn. Like-named read-outs stand apart in the source and are kept apart here.

How the values were obtained:
OXA-15 = OXA-15 (Pseudomonas aeruginosa, UniProt Q51574); test: biochemical
KPC-2 = KPC-2 (Klebsiella pneumoniae, UniProt Q9F663)
TEM-1 = TEM-1 (Escherichia coli, UniProt P62593)
AmpC (P99) = AmpC (P99) (Enterobacter cloacae, UniProt P05364); test: biochemical
K. pneumoniae BAA-1898 = test: MIC of compound alone, broth microdilution; format: cell-based; details: Klebsiella pneumoniae, BAA1898; strain BAA-1898; compound alone; read-out: MIC compounds of the invention alone
How it was run: (§1)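 Step one, log-phase suspension set to 5×10^5 cfu/mL final in CA-MHB. Step two, incubation at 35° C under ambient air for 16-20 h. Step three, visual reading of the lowest growth-free concentration as MIC.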

E. coli 190317 = test: MIC of compound alone, broth microdilution; format: cell-based; details: Escherichia coli; strain 190317; compound alone; read-out: MIC compounds of the invention alone
How it was run: as §1

E. cloacae P99 = test: MIC of compound alone, broth microdilution; format: cell-based; details: Enterobacter cloacae; strain P99; compound alone; read-out: MIC compounds of the invention alone
How it was run: as §1

K. pneumoniae 6299 = test: MIC of compound alone, broth microdilution; format: cell-based; details: Klebsiella pneumoniae; strain 6299; compound alone; read-out: MIC compounds of the invention alone
How it was run: as §1

P. aeruginosa CIP107051 = test: MIC of compound alone, broth microdilution; format: cell-based; details: Pseudomonas aeruginosa; strain CIP107051; compound alone; read-out: MIC compounds of the invention alone
How it was run: as §1

OXA-48 = OXA-48 (Klebsiella pneumoniae, UniProt Q6XEC0)
CTX-M-15 = CTX-M-15 (Escherichia coli, UniProt Q9EXV5)
CMY-37 = CMY-37 (Citrobacter freundii, UniProt P05193); details: read-out: IC50 β-lactamase CMY-37
OXA-1 = OXA-1 (Escherichia coli, UniProt P13661)
OXA-11 = OXA-11 (Pseudomonas aeruginosa, UniProt Q06778)
SHV-1 = SHV-1 (Klebsiella pneumoniae, UniProt P0AD64)
AmpC (PAE) = AmpC (PAE) (Pseudomonas aeruginosa, UniProt P24735); test: biochemical
[1] = class (C), nitrocefin 200 μM, 30-min pre-incubation, enzyme 0.2 nM

| Structure (SMILES) | IC50 (OXA-15) | IC50 (KPC-2) | IC50 (TEM-1) | IC50 (AmpC (P99)) | MIC (K. pneumoniae BAA-1898) | MIC (E. coli 190317) | MIC (E. cloacae P99) | MIC (K. pneumoniae 6299) | MIC (P. aeruginosa CIP107051) | IC50 (OXA-48) | IC50 (CTX-M-15) | IC50 (CMY-37) | IC50 (OXA-1) | IC50 (OXA-11) | IC50 (SHV-1) | IC50 (AmpC (PAE)) | IC50 (CMY-37; [1]) |
| --- | --- | --- | --- | --- | --- | --- | --- | --- | --- | --- | --- | --- | --- | --- | --- | --- | --- |
| O=C(NOCCO)c1ccn(C2=CC3CN(C2)C(=O)N3OS(=O)(=O)[O-])n1.[Na+] (stereo not drawn) [Example 47, sodium [3-[3-(2-hydroxyethoxycarbamoyl)pyrazol-1-yl]-7-oxo-1,6-diazabicyclo[3.2.1]oct-3-en-6-yl]sulfate] | 0.16 µM | 0.012 µM | 0.0015 µM | 0.032 µM | 32 µg/mL | 8 µg/mL | 32 µg/mL | 32 µg/mL | > 32 µg/mL | 0.0067 µM | 0.0011 µM | 0.032 µM | 0.2 µM | 0.1 µM | 0.0091 µM | 0.48 µM |  |
| O=C(CO)Nc1ccn(C2=CC3CN(C2)C(=O)N3OS(=O)(=O)[O-])n1.[Na+] (stereo not drawn) [Example 50, sodium [3-[3-[(2-hydroxyacetyl)amino]pyrazol-1-yl]-7-oxo-1,6-diazabicyclo[3.2.1]oct-3-en-6-yl]sulfate] | 0.06 µM | 0.012 µM | 0.0012 µM | 0.012 µM | 32 µg/mL | 8 µg/mL | 16 µg/mL | 16 µg/mL | > 32 µg/mL | 0.0057 µM | 0.00059 µM | 0.0059 µM | 0.079 µM | 0.011 µM | 0.0056 µM | 0.067 µM |  |
| O=C(CCO)Nc1ccn(C2=CC3CN(C2)C(=O)N3OS(=O)(=O)[O-])n1.[Na+] (stereo not drawn) [Example 51, sodium [3-[3-(3-hydroxypropanoylamino)pyrazol-1-yl]-7-oxo-1,6-diazabicyclo[3.2.1]oct-3-en-6-yl]sulfate] | 0.076 µM | 0.018 µM | 0.0003 µM | 0.017 µM | 32 µg/mL | 8 µg/mL | 16 µg/mL | 16 µg/mL | > 32 µg/mL | 0.0038 µM | 0.00028 µM | 0.0063 µM | 0.097 µM | 0.012 µM | 0.0019 µM | 0.078 µM |  |
| NC(=O)CONC(=O)c1ccn(C2=CC3CN(C2)C(=O)N3OS(=O)(=O)[O-])n1.[Na+] (stereo not drawn) [Example 52, sodium [3-[3-[(2-amino-2-oxo-ethoxy)carbamoyl]pyrazol-1-yl]-7-oxo-1,6-diazabicyclo[3.2.1]oct-3-en-6-yl]sulfate] | 0.26 µM | 0.011 µM | 0.0019 µM | 0.016 µM | 32 µg/mL | 8 µg/mL | 16 µg/mL | 16 µg/mL | > 32 µg/mL | 0.0075 µM | 0.00067 µM | 0.0088 µM | 0.31 µM | 0.13 µM | 0.0091 µM | 0.11 µM |  |
| CNCc1cn(C2=CC3CN(C2)C(=O)N3OS(=O)(=O)O)nn1 (stereo not drawn) [Example 60, [3-[4-(methylaminomethyl)triazol-1-yl]-7-oxo-1,6-diazabicyclo[3.2.1]oct-3-en-6-yl]hydrogen sulfate] | 0.0081 µM | 0.014 µM | 0.00035 µM | 0.027 µM | > 32 µg/mL | 0.5 µg/mL | 1 µg/mL | > 32 µg/mL | 32 µg/mL | 0.0012 µM | 0.00073 µM |  | 0.13 µM | 0.13 µM | 0.002 µM | 0.33 µM | 0.068 µM |
| NCCONC(=O)c1cn(C2=CC3CN(C2)C(=O)N3OS(=O)(=O)O)nn1 (stereo not drawn) [Example 63, [3-[4-(2-aminoethoxycarbamoyl)triazol-1-yl]-7-oxo-1,6-diazabicyclo[3.2.1]oct-3-en-6-yl]hydrogen sulfate] | 0.041 µM | 0.0047 µM | 0.00086 µM | 0.019 µM | 32 µg/mL | 8 µg/mL | 16 µg/mL | > 32 µg/mL | > 32 µg/mL | 0.00097 µM | 0.00053 µM |  | 0.052 µM | 0.11 µM | 0.0069 µM | 0.53 µM | 0.055 µM |
